# In patent US12012373B2, “Cannabinoid derivatives” (CANOPY GROWTH CORPORATION, priority 2019, dated 2024):
# What was measured:
# [1] = target: T1, human CB1 receptor (Homo sapiens, UniProt P21554); test: PathHunter β-Arrestin functional assay, CB1 receptor, agonist mode; type: cell-based; parameters: membranes prepared in house
# Text: In the PathHunter® β-Arrestin system from DiscoveRx (Eurofins, Fremont, CA), a small peptide, the ProLink™ (PK), is fused to the intracellular sequence of a GPCR target, and a complementing peptide, the enzyme acceptor (EA) fragment, is fused to β-arrestin. After binding to its specific ligand, the GPCR target recruits β-arrestin, forcing the complementation of the two β-galactosidase enzyme fragments (EA and PK) to produce a functional β-galactosidase enzyme. The enzyme activity, and thus the amount of ligand bound to the GPCR, is detected with a single addition of a reagent cocktail to lyse the cells and produce a chemiluminescent signal before being analyzed using a traditional plate reader.
# PathHunter® CHO-K1 CNR1 β-Arrestin cells (DiscoverRx, cat. Number 93-0959C2) stably expressing CB1 receptor (CB1R) were grown in Ham's F12 medium curtaining 10% fetal bovine serum (FBS), 1% penicillin/streptomycin, 300 μg/mL Hygromycin B and 800 μg/mL geneticin (G418) and maintained in 37° C. incubators at 5% CO2. […]
# The incubation was terminated by adding the detection reagent (19 parts of 1% CHAPS, 5 parts Emerald-II and 1 part Galacton-Star), equivalent to 50% of the assay volume to each wells. Plates were incubated for 1 hour in the dark at room temperature, followed by chemiluminescence detection using a microplate reader.
# Data were analysed by generating nonlinear regression curves. […]
# [2] = target: T2, human CB2 receptor (Homo sapiens, UniProt P34972); test: CB2 radioligand competitive binding assay ([3H]CP 55,940 displacement)
# T2 construct: membranes prepared in house
# Experimental: Compounds of the present disclosure were tested for CB1 receptor binding affinity and for CB2 receptor binding affinity. As used herein, “binding affinity” is represented by the IC50 value, which was experimentally determined as described herein. The lower the IC50 value the higher the binding affinity. A compound of the present disclosure may be said to have “binding selectivity” If it has a higher binding affinity for one receptor compared to the other.
# The membranes were prepared from CHO-K1 (Chinese hamster ovary) cells stably transfected with the human CB2 receptor (Cat. #ES-111-C; Perkin Elmer, Boston, MA). The cells were grown adherently and maintained in Ham's F12 medium containing 10% fetal bovine serum (FBS), penicillin, streptomycin and geneticin (G418) at 37° C. in a humid atmosphere of 5% CO2 following the manufacturer's Instructions.
# For membrane preparation the cells were washed with PBS and scraped off the plates in cold homogenization buffer (25 mM HEPES (pH 7.4), 2 mM EDTA) containing protease inhibitor cocktail (Sigma Cat. #P8340). The cell suspension was homogenized with a Pro-PK-01200D Polytron Homogenizer (Pro Scientific) and then centrifuged for 30 min at 120,000×g. The supernatant was discarded and the pellet was re-suspended in the homogenization buffer and stored at −80° C. until the time of use.
# In this experiment, 3H radiolabeled CP 55,940, i.e. [3H]CP 55,940 (Perkin Elmer, Boston, MA), was used as a radioligand for the CB2 receptor to determine the binding affinity of compounds for the CB2 receptor (Scheme 8; above).
# The competition binding experiments (single dose and dose-response) were performed by incubating 0.6 nM of [3H]CP55,940 (specific activity 101 Ci/mmol, Perkin Elmer) and different concentrations of compounds disclosed herein with membranes prepared as above from CHO-K1 cells expressing human CB2 receptor (1 μg of protein/well), 50 mM Tris-HCl (pH 7.4), 5 mM MgCl2, 1 mM CaCl2, and 2 mg/mL BSA.
# For the single dose experiments, the compound stocks (usually 10 mM in DMSO) were diluted to working stocks in the binding buffer to give the final compound concentrations of 10 μM and 1 μM. For the dose-response experiments the test compounds were sequentially diluted to provide the desired concentration range for the IC50 determination. In each case the compounds were pre-incubated with the membrane for 20 min, before adding the radioligand.
# After incubation with the radioligand for 60 min at 37° C., the incubation was terminated by rapid filtration of assay mixture through MultiScreen®HTS^+ 96-well filter plates (Millipore, Cat. #MSFCNXB), pre-soaked for 60 min with 50 mM Tris-HCl (pH 7.4) containing 0.33% polyethylenimine (PEI). The nonspecific binding (NSB) was determined in the presence of 10 μM unlabeled CP55,940. After drying the filter plate at 50° C. for at least 60 min, the filter-bound radioactivity was determined by scintillation spectrometry using the 1450 MicroBeta Plate Counter (Perkin Elmer, Boston, MA). From the dose-response experiments, the IC50 values were determined (see Table 1, CB2 IC50).
# [3] = target: T1, human CB1 receptor; test: CB1 receptor AequoScreen functional assay (agonist mode); type: cell-based; parameters: Perkin Elmer (host cells ES-000-A24); host or cells: CHO-K1 aeq/G16 (transient, FuGene)
# Text: Aequorin is a photoprotein originating from the jellyfish Aequorea Victoria. The apo-enzyme (apoaequorin) requires a hydrophobic prosthetic group, coelenterazine, to be converted to aequorin, the active form of the enzyme. […] Upon calcium binding, aequorin oxidizes coelenterazine into coelenteramide with the production of CO2 and emission of light. The consumption of aequorin is proportional to the calcium concentration. Therefore, measurement of the light emitted upon oxidation of coelenterazine is a reliable tool for measurement of intracellular calcium flux. […]
# FuGene from Promega (Catalog number selected: E2691) was used to transiently transfect CHO-K1 aeq/G16 cells with an expression vector containing the open reading frame (ORF) expression clone for CNR1 (NM_016083.4; bacterial stock; Gencopeia Inc.) at a ratio of 15 ng of plasmid DNA to 480,000 cells. […]
# After incubation, the mixture was diluted 3-fold in assay media and kept under constant gentle agitation at room temperature. […] Cells were injected automatically over the serial diluted test compounds and CP55,940 using a liquid dispenser, and the luminescence was recorded over 10-30 seconds in a microplate reader.
# Sigmoidal dose-response curves were generated using average Luminescent Counts Per Second (LCPS) which were recorded immediately after cells were mixed with compounds in agonist mode.
# [4] = target: T1, human CB1 receptor; test: biochemical; type: binding; parameters: membranes prepared in house
# T1 sequence (P21554 whole entry, the tested form may be a part): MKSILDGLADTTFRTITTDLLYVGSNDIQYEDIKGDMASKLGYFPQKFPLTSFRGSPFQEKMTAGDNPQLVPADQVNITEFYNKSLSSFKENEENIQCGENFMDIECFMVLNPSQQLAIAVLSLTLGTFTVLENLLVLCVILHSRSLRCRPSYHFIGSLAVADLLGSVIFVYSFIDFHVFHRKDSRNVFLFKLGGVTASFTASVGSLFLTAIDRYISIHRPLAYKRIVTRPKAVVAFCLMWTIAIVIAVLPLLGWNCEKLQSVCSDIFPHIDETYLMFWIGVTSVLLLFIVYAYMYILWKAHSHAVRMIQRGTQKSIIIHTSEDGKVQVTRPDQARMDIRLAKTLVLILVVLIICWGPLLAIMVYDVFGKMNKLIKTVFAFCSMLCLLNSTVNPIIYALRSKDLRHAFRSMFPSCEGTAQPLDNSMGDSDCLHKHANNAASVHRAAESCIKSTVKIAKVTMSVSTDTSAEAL
# T2 sequence (P34972 whole entry): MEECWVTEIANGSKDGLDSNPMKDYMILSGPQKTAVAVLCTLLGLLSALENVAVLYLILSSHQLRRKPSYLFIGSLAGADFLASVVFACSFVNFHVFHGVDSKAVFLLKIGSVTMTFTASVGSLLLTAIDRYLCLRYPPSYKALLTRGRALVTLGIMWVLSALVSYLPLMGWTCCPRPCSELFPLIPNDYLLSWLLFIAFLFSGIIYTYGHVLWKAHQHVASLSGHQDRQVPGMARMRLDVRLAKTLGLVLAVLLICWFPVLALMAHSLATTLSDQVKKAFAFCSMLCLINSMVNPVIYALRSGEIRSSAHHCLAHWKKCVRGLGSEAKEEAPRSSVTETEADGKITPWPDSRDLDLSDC
structure (smiles),measurement,setting,value
"CCCCCc1cc(O)c(C2C=C(C)CCC2)c(O)c1S(=O)(=O)N(CC)CC (stereo not shown) [Compound 62c, N,N-diethyl-2,6-dihydroxy-5′-methyl-4-pentyl-1′,2′,3′,4′-tetrahydro-[1,1′-biphenyl]-3-sulfonamide]",EC50,[1],~499 nM
same,"relative efficacy in comparison to CP55,940","[1]; agonist mode, PathHunter CHO-K1 CNR1 β-Arrestin cells",about 56%
same,IC50,"[2]; [3H]CP 55,940 displacement, CHO-K1 membranes expressing human CB2 receptor",< 100 nM
same,Selectivity CB2,"[2]; fold difference in binding between CB1 and CB2, shown in the column of the receptor with higher affinity, 1.00 in both = about same affinity",31.82 fold
same,EC50,[3],~502 nM
same,"relative efficacy in comparison to CP55,940","[3]; AequoScreen, agonist mode, CHO-K1 aeq/G16 cells transfected with CNR1",about 117%
same,IC50,[4],100 to 990 nM
